Measurements published in patent US12522583B2, “Benzimidazole derivatives and aza-benzimidazole derivatives as Janus kinase 2 inhibitors and uses thereof” (Dana-Farber Cancer Institute, Inc., priority 2018, dated 2026).

Assays:
Experiment in all cases: KINOMEscan
Type in all cases: binding
Settings in all cases: read-out: percent control
GSK3B = GSK3B (Homo sapiens (Human), UniProt P49841)
Source text: (§1) Example 2. In Vitro Kinase Selectivity Profiling of the Compounds of the Present Disclosure

EGFR(L858R, T790M) = EGFR(L858R, T790M) (Homo sapiens (Human), UniProt P00533, L858R/T790M)
Source text: as §1

DMPK2 = DMPK2 (Homo sapiens (Human), UniProt Q6DT37)
Source text: as §1

EPHB3 = EPHB3 (Homo sapiens (Human), UniProt P54753)
Source text: as §1

[1] = target: ABL1(Q252H)-phosphorylated (Homo sapiens (Human), UniProt P00519, Q252H)
Source text: as §1

LZK = LZK (Homo sapiens (Human), UniProt O43283)
Source text: as §1

DYRK2 = DYRK2 (Homo sapiens (Human), UniProt Q92630)
Source text: as §1

[2] = target: ABL1(F317L)-phosphorylated (Homo sapiens (Human), UniProt P00519, F317L)
Source text: as §1

MEK6 = MEK6 (Homo sapiens (Human), UniProt P52564)
Source text: as §1

CSNK1E = CSNK1E (Homo sapiens (Human), UniProt P49674)
Source text: as §1

TESK1 = TESK1 (Homo sapiens (Human), UniProt Q15569)
Source text: as §1

PIK3CA(E545K) = PIK3CA(E545K) (Homo sapiens (Human), UniProt P42336, E545K)
Source text: as §1

WNK4 = WNK4 (Homo sapiens (Human), UniProt Q96J92)
Source text: as §1

PDPK1 = PDPK1 (Homo sapiens (Human), UniProt O15530)
Source text: as §1

DAPK2 = DAPK2 (Homo sapiens (Human), UniProt Q9UIK4)
Source text: as §1

PRKD2 = PRKD2 (Homo sapiens (Human), UniProt Q9BZL6)
Source text: as §1

MLCK = MLCK (Homo sapiens (Human), UniProt Q32MK0)
Source text: as §1

WNK2 = WNK2 (Homo sapiens (Human), UniProt Q9Y3S1)
Source text: as §1

CSNK2A1 = CSNK2A1 (Homo sapiens (Human), UniProt P68400)
Source text: as §1

ERBB3 = ERBB3 (Homo sapiens (Human), UniProt P21860)
Source text: as §1

ACVR2A = ACVR2A (Homo sapiens (Human), UniProt P27037)
Source text: as §1

VEGFR2 = VEGFR2 (Homo sapiens (Human), UniProt P35968)
Source text: as §1

MERTK = MERTK (Homo sapiens (Human), UniProt Q12866)
Source text: as §1

MARK2 = MARK2 (Homo sapiens (Human), UniProt Q7KZI7)
Source text: as §1

KIT = KIT (Homo sapiens (Human), UniProt P10721)
Source text: as §1

RIOK2 = RIOK2 (Homo sapiens (Human), UniProt Q9BVS4)
Source text: as §1

CDK4-cyclinD3 = CDK4-cyclinD3 (Homo sapiens (Human), UniProt P11802)
Source text: as §1

NDR1 = NDR1 (Homo sapiens (Human), UniProt Q15208)
Source text: as §1

CDK5 = CDK5 (Homo sapiens (Human), UniProt Q00535)
Source text: as §1

SIK = SIK (Homo sapiens (Human), UniProt P57059)
Source text: as §1

VPS34 = VPS34 (Homo sapiens (Human), UniProt Q8NEB9)
Source text: as §1

ACVR1B = ACVR1B (Homo sapiens (Human), UniProt P36896)
Source text: as §1

AKT1 = AKT1 (Homo sapiens (Human), UniProt P31749)
Source text: as §1

[3] = target: RSK3(Kin.Dom.2- C-terminal) (Homo sapiens (Human), UniProt Q15349)
Source text: as §1

CAMK1G = CAMK1G (Homo sapiens (Human), UniProt Q96NX5)
Source text: as §1

RET(V804M) = RET(V804M) (Homo sapiens (Human), UniProt P07949, V804M)
Source text: as §1

PFPK5(P.falciparum) = PFPK5(P.falciparum) (Plasmodium falciparum (isolate 3D7), UniProt P61075)
Source text: as §1

p38-delta = p38-delta (Homo sapiens (Human), UniProt O15264)
Source text: as §1

MYLK = MYLK (Homo sapiens (Human), UniProt Q15746)
Source text: as §1

EPHA3 = EPHA3 (Homo sapiens (Human), UniProt P29320)
Source text: as §1

RIOK2, sequence (Q9BVS4 whole entry): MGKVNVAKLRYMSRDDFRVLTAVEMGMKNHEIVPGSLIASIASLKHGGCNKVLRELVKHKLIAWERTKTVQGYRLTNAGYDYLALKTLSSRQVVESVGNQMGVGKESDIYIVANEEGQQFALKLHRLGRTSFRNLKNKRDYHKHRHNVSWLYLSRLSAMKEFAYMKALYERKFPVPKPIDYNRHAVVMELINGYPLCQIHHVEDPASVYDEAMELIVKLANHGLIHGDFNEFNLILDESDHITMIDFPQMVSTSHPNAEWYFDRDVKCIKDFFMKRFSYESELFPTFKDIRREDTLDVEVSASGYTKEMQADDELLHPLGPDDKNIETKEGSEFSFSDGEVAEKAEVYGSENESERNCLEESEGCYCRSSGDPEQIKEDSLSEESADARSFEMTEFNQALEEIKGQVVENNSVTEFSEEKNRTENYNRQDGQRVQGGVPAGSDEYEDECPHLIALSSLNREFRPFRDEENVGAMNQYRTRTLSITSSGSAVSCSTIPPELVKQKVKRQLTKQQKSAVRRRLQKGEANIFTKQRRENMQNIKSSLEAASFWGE
NDR1, sequence (Q15208 whole entry): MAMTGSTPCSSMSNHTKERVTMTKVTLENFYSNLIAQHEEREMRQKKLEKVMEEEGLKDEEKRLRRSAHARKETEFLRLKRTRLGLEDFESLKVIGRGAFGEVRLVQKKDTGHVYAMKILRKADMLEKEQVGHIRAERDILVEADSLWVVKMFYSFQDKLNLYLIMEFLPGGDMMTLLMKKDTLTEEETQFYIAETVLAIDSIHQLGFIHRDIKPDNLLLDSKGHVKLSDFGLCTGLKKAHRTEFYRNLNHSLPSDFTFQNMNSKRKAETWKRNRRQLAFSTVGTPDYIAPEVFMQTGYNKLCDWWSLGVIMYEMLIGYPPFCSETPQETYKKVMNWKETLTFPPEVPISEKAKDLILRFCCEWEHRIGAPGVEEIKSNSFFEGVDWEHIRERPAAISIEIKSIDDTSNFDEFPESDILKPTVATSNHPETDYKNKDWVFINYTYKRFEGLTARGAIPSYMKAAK
SIK, sequence (P57059 whole entry): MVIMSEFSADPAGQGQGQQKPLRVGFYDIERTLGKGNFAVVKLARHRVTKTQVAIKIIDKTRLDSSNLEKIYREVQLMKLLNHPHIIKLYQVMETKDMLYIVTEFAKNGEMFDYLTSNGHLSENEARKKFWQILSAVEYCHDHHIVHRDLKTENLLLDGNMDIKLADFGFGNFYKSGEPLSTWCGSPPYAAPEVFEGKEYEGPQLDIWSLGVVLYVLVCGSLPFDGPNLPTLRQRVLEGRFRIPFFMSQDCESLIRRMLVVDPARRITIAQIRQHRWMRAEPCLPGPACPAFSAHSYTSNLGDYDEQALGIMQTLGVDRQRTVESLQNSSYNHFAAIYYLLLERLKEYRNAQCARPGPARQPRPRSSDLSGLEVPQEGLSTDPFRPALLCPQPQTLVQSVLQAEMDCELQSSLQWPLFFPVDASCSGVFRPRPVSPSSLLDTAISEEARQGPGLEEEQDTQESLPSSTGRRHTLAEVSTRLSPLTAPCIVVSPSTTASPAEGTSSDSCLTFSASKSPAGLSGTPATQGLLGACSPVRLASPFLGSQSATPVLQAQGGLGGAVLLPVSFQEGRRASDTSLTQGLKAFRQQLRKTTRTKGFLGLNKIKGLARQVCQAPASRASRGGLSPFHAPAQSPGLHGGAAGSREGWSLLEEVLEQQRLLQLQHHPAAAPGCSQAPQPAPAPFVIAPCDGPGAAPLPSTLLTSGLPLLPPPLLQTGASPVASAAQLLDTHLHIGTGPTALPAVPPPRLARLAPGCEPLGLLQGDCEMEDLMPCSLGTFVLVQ
PIK3CA(E545K), sequence (P42336 whole entry E545K): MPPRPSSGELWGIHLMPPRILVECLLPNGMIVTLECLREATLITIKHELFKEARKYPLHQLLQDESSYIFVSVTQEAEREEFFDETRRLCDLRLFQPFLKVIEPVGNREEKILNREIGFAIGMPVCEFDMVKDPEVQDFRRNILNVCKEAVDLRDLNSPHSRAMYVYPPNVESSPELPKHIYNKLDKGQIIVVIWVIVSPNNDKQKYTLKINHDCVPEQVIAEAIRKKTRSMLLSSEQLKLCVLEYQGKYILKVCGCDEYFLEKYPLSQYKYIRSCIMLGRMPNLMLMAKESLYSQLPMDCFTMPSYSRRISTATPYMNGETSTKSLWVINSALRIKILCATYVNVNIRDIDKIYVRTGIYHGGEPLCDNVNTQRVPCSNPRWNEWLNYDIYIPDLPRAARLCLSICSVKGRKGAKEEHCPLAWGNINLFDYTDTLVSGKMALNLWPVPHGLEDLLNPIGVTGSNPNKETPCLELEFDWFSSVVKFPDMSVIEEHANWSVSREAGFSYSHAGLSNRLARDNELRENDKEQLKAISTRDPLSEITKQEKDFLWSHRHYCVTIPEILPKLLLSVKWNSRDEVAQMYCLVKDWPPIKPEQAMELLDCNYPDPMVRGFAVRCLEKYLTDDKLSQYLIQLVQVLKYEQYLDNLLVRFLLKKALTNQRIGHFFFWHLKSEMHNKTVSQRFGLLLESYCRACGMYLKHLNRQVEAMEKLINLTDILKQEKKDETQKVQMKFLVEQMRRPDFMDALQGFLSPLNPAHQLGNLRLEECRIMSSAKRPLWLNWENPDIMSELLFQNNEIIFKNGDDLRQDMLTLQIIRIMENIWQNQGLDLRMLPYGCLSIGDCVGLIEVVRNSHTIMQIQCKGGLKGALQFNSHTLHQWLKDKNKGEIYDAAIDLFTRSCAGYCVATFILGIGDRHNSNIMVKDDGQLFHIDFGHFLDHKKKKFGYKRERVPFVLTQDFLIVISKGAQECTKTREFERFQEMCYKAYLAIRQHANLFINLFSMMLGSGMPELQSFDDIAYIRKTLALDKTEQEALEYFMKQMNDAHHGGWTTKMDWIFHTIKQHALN
DYRK2, sequence (Q92630 whole entry): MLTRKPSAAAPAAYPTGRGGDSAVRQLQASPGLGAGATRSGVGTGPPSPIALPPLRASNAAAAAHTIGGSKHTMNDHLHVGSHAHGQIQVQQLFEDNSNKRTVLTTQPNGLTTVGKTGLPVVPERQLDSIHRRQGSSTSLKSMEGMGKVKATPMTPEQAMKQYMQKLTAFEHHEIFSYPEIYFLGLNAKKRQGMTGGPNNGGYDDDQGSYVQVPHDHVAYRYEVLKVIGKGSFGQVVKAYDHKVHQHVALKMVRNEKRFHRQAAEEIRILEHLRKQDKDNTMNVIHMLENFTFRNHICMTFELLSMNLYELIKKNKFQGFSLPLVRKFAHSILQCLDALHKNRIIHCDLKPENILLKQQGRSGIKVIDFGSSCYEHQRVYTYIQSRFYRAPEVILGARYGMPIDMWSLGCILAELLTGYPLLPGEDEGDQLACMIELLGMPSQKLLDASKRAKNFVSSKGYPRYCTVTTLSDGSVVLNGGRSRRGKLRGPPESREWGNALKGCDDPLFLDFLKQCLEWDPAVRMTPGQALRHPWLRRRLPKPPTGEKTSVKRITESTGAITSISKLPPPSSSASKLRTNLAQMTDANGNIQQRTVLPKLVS
EGFR(L858R, T790M), sequence (P00533 25-1210 T790M/L858R): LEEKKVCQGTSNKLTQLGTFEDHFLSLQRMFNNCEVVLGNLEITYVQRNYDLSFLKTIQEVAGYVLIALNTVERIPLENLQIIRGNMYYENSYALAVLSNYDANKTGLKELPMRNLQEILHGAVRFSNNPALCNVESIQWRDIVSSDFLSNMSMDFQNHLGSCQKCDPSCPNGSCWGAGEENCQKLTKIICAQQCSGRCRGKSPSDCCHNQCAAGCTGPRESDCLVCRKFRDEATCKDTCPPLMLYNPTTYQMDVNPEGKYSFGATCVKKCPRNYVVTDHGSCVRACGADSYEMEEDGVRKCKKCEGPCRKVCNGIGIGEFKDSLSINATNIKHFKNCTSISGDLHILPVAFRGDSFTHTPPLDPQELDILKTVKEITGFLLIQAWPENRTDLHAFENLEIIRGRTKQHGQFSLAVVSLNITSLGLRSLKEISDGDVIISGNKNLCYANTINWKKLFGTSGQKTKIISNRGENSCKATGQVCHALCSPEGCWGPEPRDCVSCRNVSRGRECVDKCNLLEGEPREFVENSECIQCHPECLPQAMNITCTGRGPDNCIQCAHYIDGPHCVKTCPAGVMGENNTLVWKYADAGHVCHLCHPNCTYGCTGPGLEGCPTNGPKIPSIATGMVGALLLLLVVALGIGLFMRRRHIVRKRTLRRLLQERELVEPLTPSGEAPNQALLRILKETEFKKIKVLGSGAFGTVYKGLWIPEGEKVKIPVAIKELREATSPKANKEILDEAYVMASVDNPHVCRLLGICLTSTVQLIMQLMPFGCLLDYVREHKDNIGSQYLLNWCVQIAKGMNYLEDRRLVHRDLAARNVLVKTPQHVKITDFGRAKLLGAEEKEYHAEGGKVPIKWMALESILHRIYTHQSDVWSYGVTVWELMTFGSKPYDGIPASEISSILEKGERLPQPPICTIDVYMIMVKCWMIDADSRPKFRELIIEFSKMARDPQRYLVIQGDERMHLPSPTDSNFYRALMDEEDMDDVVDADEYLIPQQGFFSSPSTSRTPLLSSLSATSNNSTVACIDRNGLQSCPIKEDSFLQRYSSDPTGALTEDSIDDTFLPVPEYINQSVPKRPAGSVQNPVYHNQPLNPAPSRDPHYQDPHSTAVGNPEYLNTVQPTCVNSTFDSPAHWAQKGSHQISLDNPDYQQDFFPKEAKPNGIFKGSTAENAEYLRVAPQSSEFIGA
GSK3B, sequence (P49841 whole entry): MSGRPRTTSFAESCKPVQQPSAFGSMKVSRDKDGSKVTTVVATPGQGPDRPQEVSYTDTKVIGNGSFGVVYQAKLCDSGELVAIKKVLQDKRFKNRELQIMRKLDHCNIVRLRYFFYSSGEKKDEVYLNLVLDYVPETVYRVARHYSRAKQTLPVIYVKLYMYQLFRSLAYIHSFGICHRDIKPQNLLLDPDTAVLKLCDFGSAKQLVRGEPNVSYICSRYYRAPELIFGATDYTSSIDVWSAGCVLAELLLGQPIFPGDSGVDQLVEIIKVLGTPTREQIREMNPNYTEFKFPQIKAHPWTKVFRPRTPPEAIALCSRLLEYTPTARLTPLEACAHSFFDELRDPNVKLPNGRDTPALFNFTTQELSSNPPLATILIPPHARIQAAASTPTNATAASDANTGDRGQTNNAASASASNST

Structure (SMILES)	remaining binding at 1 µM (GSK3B) [%]	remaining binding at 1 µM (EGFR(L858R, T790M)) [%]	remaining binding at 1 µM (DMPK2) [%]	remaining binding at 1 µM (EPHB3) [%]	remaining binding at 1 µM [1] [%]	remaining binding at 1 µM (LZK) [%]	remaining binding at 1 µM (DYRK2) [%]	remaining binding at 1 µM [2] [%]	remaining binding at 1 µM (MEK6) [%]	remaining binding at 1 µM (CSNK1E) [%]	remaining binding at 1 µM (TESK1) [%]	remaining binding at 1 µM (PIK3CA(E545K)) [%]	remaining binding at 1 µM (WNK4) [%]	remaining binding at 1 µM (PDPK1) [%]	remaining binding at 1 µM (DAPK2) [%]	remaining binding at 1 µM (PRKD2) [%]	remaining binding at 1 µM (MLCK) [%]	remaining binding at 1 µM (WNK2) [%]	remaining binding at 1 µM (CSNK2A1) [%]	remaining binding at 1 µM (ERBB3) [%]	also measured
CCN1CCN(Cc2ccc(Nc3nc4ccc(Oc5ccnc(NC(C)=O)c5)cc4n3C)cc2C(F)(F)F)CC1 [Compound I-2]	76	100	89	96	36	100	83	43	88	90	67	80	93	94	79	92	100	98	66	62	remaining binding at 1 µM (ACVR2A): 100%; remaining binding at 1 µM (VEGFR2): 0.85%; remaining binding at 1 µM (MERTK): 32%; remaining binding at 1 µM (MARK2): 100%; remaining binding at 1 µM (KIT): 0%; remaining binding at 1 µM (RIOK2): 51%; remaining binding at 1 µM (CDK4-cyclinD3): 72%; remaining binding at 1 µM (NDR1): 90%; remaining binding at 1 µM (CDK5): 97%; remaining binding at 1 µM (SIK): 95%; remaining binding at 1 µM (VPS34): 87%; remaining binding at 1 µM (ACVR1B): 100%; remaining binding at 1 µM (AKT1): 94%; remaining binding at 1 µM [3]: 82%; remaining binding at 1 µM (CAMK1G): 100%; remaining binding at 1 µM (RET(V804M)): 9.9%; remaining binding at 1 µM (PFPK5(P.falciparum)): 100%; remaining binding at 1 µM (p38-delta): 77%; remaining binding at 1 µM (MYLK): 59%; remaining binding at 1 µM (EPHA3): 52%
CCN1CCN(Cc2ccc(Nc3nc4ccc(Oc5ccnc(NC(C)=O)c5)c(C)c4n3C)cc2C(F)(F)F)CC1 [Compound I-6, N-(4-(2-(4-((4-ethylpiperazin-1-yl)methyl)-3-(trifluoromethyl)phenylamino)-1,7-dimethyl-1H-benzo[d]imidazol-6-yloxy)pyridin-2-yl)acetamide]	100	100	83	100	24	75	97	44	71	66	62	97	82	93	99	100	97	66	91	89	remaining binding at 1 µM (ACVR2A): 100%; remaining binding at 1 µM (VEGFR2): 1.7%; remaining binding at 1 µM (MERTK): 59%; remaining binding at 1 µM (MARK2): 100%; remaining binding at 1 µM (KIT): 0.55%; remaining binding at 1 µM (RIOK2): 96%; remaining binding at 1 µM (CDK4-cyclinD3): 95%; remaining binding at 1 µM (NDR1): 100%; remaining binding at 1 µM (CDK5): 90%; remaining binding at 1 µM (SIK): 98%; remaining binding at 1 µM (VPS34): 100%; remaining binding at 1 µM (ACVR1B): 94%; remaining binding at 1 µM (AKT1): 89%; remaining binding at 1 µM [3]: 95%; remaining binding at 1 µM (CAMK1G): 99%; remaining binding at 1 µM (RET(V804M)): 4.5%; remaining binding at 1 µM (PFPK5(P.falciparum)): 91%; remaining binding at 1 µM (p38-delta): 73%; remaining binding at 1 µM (MYLK): 91%; remaining binding at 1 µM (EPHA3): 68%
